Measured values published in patent publication US9302999B2, “Substituted triazoles as herbicides” (E. I. DU PONT DE NEMOURS AND COMPANY, priority 2012, dated 2016).

Legend:
Type in all cases: in vivo
soybean (Glycine max) = assay: Test F pre-/postemergence: soybean
Source text: (§1) Seeds of plant species selected from corn (Zea mays), soybean (Glycine max), velvetleaf (Abutilon theophrasti), lambsquarters (Chenopodium album), poinsettia, wild (wild poinsettia, Euphorbia heterophylla), pigweed, palmer (palmer pigweed, Amaranthus palmeri), waterhemp (common waterhemp, Amaranthus rudis), surinam grass (Brachiaria decumbens), crabgrass, Brazil (Brazilian crabgrass, Digitaria horizontalis), panicum, fall (fall panicum Panicum dichotomiflorum), crabgrass, large (large crabgrass, Digitaria sanguinalis), foxtail, giant (giant foxtail, Setaria faberii), foxtail, green (green foxtail Setaria viridis), goosegrass (Eleusine indica), ragweed (common ragweed, Ambrosia elatior), barnyardgrass (Echinochloa crus-galli), sandbur (southern sandbur, Cenchrus echinatus), arrowleaf sida (Sida rhombifolia), ryegrass, Italian (Italian ryegrass, Lolium multiflorum), dayflower, VA (Virginia (VA) dayflower, Commelina virginica), field bindweed (Convolvulus arvensis), cocklebur (common cocklebur, Xanthium strumarium), morningglory (Ipomoea coccinea), nightshade (eastern black nightshade, Solanum ptycanthum), kochia (Kochia scoparia), nutsedge, yellow (yellow nutsedge, Cyperus esculentus), johnsongrass (Sorghum halepense), smartweed (ladysthumb smartweed, Polygonum persicaria), and beggarticks (hairy beggarticks, Bidens pilosa), were planted into a silt loam soil and treated preemergence with test chemicals formulated in a non-phytotoxic solvent mixture which included a surfactant. At the same time, plants selected from these crop and weed species and also pigweed (Amaranthus retroflexus), waterhemp_RES1 (ALS/Triazine resistant common waterhemp, Amaranthus rudis) and waterhemp_RES2 (ALS/HPPD resistant common waterhemp, Amaranthus rudis) were planted in pots containing a planting medium comprising spaghnum peat moss, vermiculite, wetting agent and starter nutrients treated with postemergence applications of some of the test chemicals formulated in the same manner. Plants ranged in height from 2 to 18 cm for postemergence treatments (1- to 4-leaf stage).
(§2) Treated plants and controls were maintained in a greenhouse for 14 to 21 days, after which time all species were compared to controls and visually evaluated. Plant response ratings, summarized in Table E, are based on a scale of 0 to 100 where 0 is no effect and 100 is complete control. A dash (-) response means no test result.

[1] = tested on: crabgrass, Brazil (Brazilian crabgrass, Digitaria horizontalis); assay: Test F pre-/postemergence: crabgrass, Brazil
Source text: as §1, §2

[2] = tested on: nightshade (eastern black nightshade, Solanum ptycanthum); assay: Test F pre-/postemergence: nightshade; conditions: Preemergence
Source text: as §1, §2

[3] = tested on: chickweed (common chickweed, Stellaria media); assay: Test D pre-/postemergence: chickweed
Source text: (§3) Seeds of plant species selected from bluegrass (annual bluegrass, Poa annua), blackgrass (Alopecurus myosuroides), canarygrass (Phalaris minor), chickweed (common chickweed, Stellaria media), galium (catchweed bedstraw, Galium aparine), bromegrass, downy (downy bromegrass, Bromus tectorum), field poppy (Papaver rhoeas), field violet (Viola arvensis), foxtail, green (green foxtail, Setaria viridis), deadnettle (henbit deadnettle, Lamium amplexicaule), ryegrass, Italian (Italian ryegrass, Lolium multiflorum), kochia (Kochia scoparia), lambsquarters (Chenopodium album), oilseed rape (Brassica napus), pigweed (Amaranthus retroflexus), Russian thistle (Salsola iberica), chamomile (scentless chamomile, Matricaria inodora), speedwell (bird's-eye speedwell, Veronica persica), barley, spring (spring barley, Hordeum vulgare), wheat, spring (spring wheat, Triticum aestivum), buckwheat, wild (wild buckwheat, Polygonum convolvulus), mustard, wild (wild mustard, Sinapis arvensis), oat, wild (wild oat, Avena fatua), radish, wild (wild radish, Raphanus raphanistrum), windgrass (Apera spica-venti), barley, winter (winter barley, Hordeum vulgare), and wheat, winter (winter wheat, Triticum aestivum) were planted into a silt loam soil and treated preemergence with test chemicals formulated in a non-phytotoxic solvent mixture which included a surfactant. At the same time, these same crop and weed species were planted in pots containing the planting medium comprising spaghnum peat moss, vermiculite, wetting agent and starter nutrients and treated with postemergence applications of the test chemicals formulated in the same manner. Plants ranged in height from 2 to 18 cm (1- to 4-leaf stage).
as §2, with “controlled growth environment” for “greenhouse”, “days” for “days,”, “D,” for “E,”

[4] = tested on: field poppy (Papaver rhoeas); assay: Test D pre-/postemergence: field poppy
Source text: as §3
as §2, with “controlled growth environment” for “greenhouse”, “days” for “days,”, “D,” for “E,”

[5] = tested on: field violet (Viola arvensis); assay: Test D pre-/postemergence: field violet
Source text: as §3
as §2, with “controlled growth environment” for “greenhouse”, “days” for “days,”, “D,” for “E,”

[6] = tested on: buckwheat, wild (wild buckwheat, Polygonum convolvulus); assay: Test D pre-/postemergence: buckwheat, wild
In short: (§4)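 We sprayed chemicals in a surfactant-containing solvent onto silt loam at planting (preemergence) and onto 1- to 4-leaf seedlings (postemergence). Fourteen to 21 days later, each species was rated visually from 0 to 100 relative to controls.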

[7] = tested on: oat, wild (wild oat, Avena fatua); assay: Test D pre-/postemergence: oat, wild
In short: as §4

[8] = Preemergence, 16 g ai/ha, scale 0 to 100, 0 no effect, 100 complete control
[9] = Preemergence, 31 g ai/ha, scale 0 to 100, 0 no effect, 100 complete control
[10] = Preemergence, 125 g ai/ha, scale 0 to 100
[11] = Preemergence, 250 g ai/ha, scale 0 to 100
[12] = Preemergence, 62 g ai/ha, scale 0 to 100
[13] = 16 g ai/ha, scale 0 to 100, 0 no effect, 100 complete control
[14] = 31 g ai/ha, scale 0 to 100, 0 no effect, 100 complete control
[15] = Postemergence, 31 g ai/ha, scale 0 to 100 (0 no effect, 100 complete control)
[16] = Postemergence, 62 g ai/ha, scale 0 to 100 (0 no effect, 100 complete control)
[17] = Postemergence, 125 g ai/ha, scale 0 to 100, 0 no effect, 100 complete control
[18] = Postemergence, 16 g ai/ha, scale 0 to 100
[19] = Postemergence, 250 g ai/ha, scale 0 to 100
[20] = Postemergence, 31 g ai/ha, scale 0 to 100
[21] = Postemergence, 62 g ai/ha, scale 0 to 100
[22] = Postemergence, 125 g ai/ha, scale 0 to 100

SMILES: CCc1nn(-c2ccc(F)cc2)nc1Cc1ccnc(C(F)(F)F)c1 [Compound 154]
- Plant response rating, Soybean (soybean (Glycine max); [8]): 0
- Plant response rating, Soybean (soybean (Glycine max); [9]): 0
- Plant response rating, Soybean (soybean (Glycine max); [10]): 25
- Plant response rating, Soybean (soybean (Glycine max); [11]): 25
- Plant response rating, Crabgrass, Brazil [1, 8]: 75
- Plant response rating, Crabgrass, Brazil [1, 9]: 100
- Plant response rating, Crabgrass, Brazil [1, 12]: 100
- Plant response rating, Crabgrass, Brazil [1, 10]: 100
- Plant response rating, Crabgrass, Brazil [1, 11]: 100
- Plant response rating, Nightshade [2, 13]: 0
- Plant response rating, Nightshade [2, 14]: 10
- Plant response rating, Nightshade ([2]; 125 g ai/ha, scale 0 to 100): 90
- Plant response rating, Nightshade ([2]; 250 g ai/ha, scale 0 to 100): 100

SMILES: Cc1nn(-c2ccc(F)c(C(F)(F)F)c2)nc1Cc1ccnc(C(F)(F)F)c1 [Compound 156]
- Plant response rating: Chickweed [3, 15]: 75
- Plant response rating: Chickweed [3, 16]: 90
- Plant response rating: Chickweed [3, 17]: 95
- Plant response rating, Chickweed [3, 18]: 60
- Plant response rating, Chickweed [3, 8]: 50
- Plant response rating, Chickweed [3, 9]: 100
- Plant response rating, Chickweed [3, 12]: 100
- Plant response rating, Chickweed [3, 10]: 100
- Plant response rating: Field Poppy [4, 15]: 100
- Plant response rating: Field Poppy [4, 16]: 100
- Plant response rating: Field Poppy [4, 17]: 100
- Plant response rating, Field Poppy [4, 18]: 85
- Plant response rating, Field Poppy [4, 8]: 85
- Plant response rating, Field Poppy [4, 9]: 100
- Plant response rating, Field Poppy [4, 12]: 95
- Plant response rating, Field Poppy [4, 10]: 100
- Plant response rating: Field Violet [5, 15]: 95
- Plant response rating: Field Violet [5, 16]: 95
- Plant response rating: Field Violet [5, 17]: 95
- Plant response rating, Field Violet [5, 18]: 95
- Plant response rating, Field Violet [5, 8]: 60
- Plant response rating, Field Violet [5, 9]: 95
- Plant response rating, Field Violet [5, 12]: 100
- Plant response rating, Field Violet [5, 10]: 100
- Plant response rating: Buckwheat, Wild [6, 15]: 75
- Plant response rating: Buckwheat, Wild [6, 16]: 80
- Plant response rating: Buckwheat, Wild [6, 17]: 85
- Plant response rating, Buckwheat, Wild [6, 18]: 70
- Plant response rating, Buckwheat, Wild [6, 8]: 0
- Plant response rating, Buckwheat, Wild [6, 9]: 50
- Plant response rating, Buckwheat, Wild [6, 12]: 65
- Plant response rating, Buckwheat, Wild [6, 10]: 100
- Plant response rating: Oat, Wild [7, 15]: 15
- Plant response rating: Oat, Wild [7, 16]: 20
- Plant response rating: Oat, Wild [7, 17]: 65
- Plant response rating, Oat, Wild [7, 18]: 10
- Plant response rating, Oat, Wild [7, 8]: 5
- Plant response rating, Oat, Wild [7, 9]: 10
- Plant response rating, Oat, Wild [7, 12]: 25
- Plant response rating, Oat, Wild [7, 10]: 90

SMILES: CCc1nn(-c2ccc(C(F)(F)F)cc2)nc1Oc1ccnc(C(F)(F)F)c1 [Compound 169]
- Plant response rating, Soybean (soybean (Glycine max); [19]): 50
- Plant response rating, Soybean (soybean (Glycine max); [18]): 20
- Plant response rating, Soybean (soybean (Glycine max); [20]): 20
- Plant response rating, Soybean (soybean (Glycine max); [21]): 30
- Plant response rating, Soybean (soybean (Glycine max); [22]): 40
- Plant response rating, Soybean (soybean (Glycine max); [8]): 0
- Plant response rating, Soybean (soybean (Glycine max); [9]): 0
- Plant response rating, Soybean (soybean (Glycine max); [11]): 20
- Plant response rating, Crabgrass, Brazil [1, 19]: 30
- Plant response rating, Crabgrass, Brazil [1, 18]: 20
- Plant response rating, Crabgrass, Brazil [1, 20]: 20
- Plant response rating, Crabgrass, Brazil [1, 21]: 20
- Plant response rating, Crabgrass, Brazil [1, 22]: 20
- Plant response rating, Crabgrass, Brazil [1, 8]: 100
- Plant response rating, Crabgrass, Brazil [1, 9]: 100
- Plant response rating, Crabgrass, Brazil [1, 12]: 100
- Plant response rating, Crabgrass, Brazil [1, 10]: 100
- Plant response rating, Crabgrass, Brazil [1, 11]: 100
- Plant response rating, Nightshade [2, 13]: 0
- Plant response rating, Nightshade [2, 14]: 80
- Plant response rating, Nightshade ([2]; 125 g ai/ha, scale 0 to 100): 100
- Plant response rating, Nightshade ([2]; 250 g ai/ha, scale 0 to 100): 100

SMILES: CCc1nn(-c2ccc(F)c(F)c2)nc1Oc1ccnc(C(F)(F)F)c1 [Compound 171]
- Plant response rating, Soybean (soybean (Glycine max); [8]): 0
- Plant response rating, Soybean (soybean (Glycine max); [9]): 0
- Plant response rating, Soybean (soybean (Glycine max); [10]): 0
- Plant response rating, Soybean (soybean (Glycine max); [11]): 20
- Plant response rating, Crabgrass, Brazil [1, 8]: 0
- Plant response rating, Crabgrass, Brazil [1, 9]: 98
- Plant response rating, Crabgrass, Brazil [1, 12]: 100
- Plant response rating, Crabgrass, Brazil [1, 10]: 100
- Plant response rating, Crabgrass, Brazil [1, 11]: 100
- Plant response rating, Nightshade [2, 13]: 0
- Plant response rating, Nightshade [2, 14]: 0
- Plant response rating, Nightshade ([2]; 125 g ai/ha, scale 0 to 100): 5
- Plant response rating, Nightshade ([2]; 250 g ai/ha, scale 0 to 100): 5
